Measured values as given in patent publication US20040076663A1, “Complexed-acidic-phospholipid-collagen composites for bone induction” (priority 2002, published 2004).

System: human osteoblast-like cells, MG-63
Test: Cell binding to complexed acidic phospholipid collagen composite (cell adherence and proliferation)
Assay type: cell-based
Conditions: MG-63 cell cultures; composite sterilized under UV light
Source text: Before usage, the prepared composite was sterilized under UV light.

fibronectin
cell adherence and proliferation: some cells remain in clumps and there appeared to be fewer cells that adhered compared to those exposed to either of the composite formulations
